The values below are quoted from earlier work in patent publication US10898452B2, “Stable formulation for parenteral administration of Tapentadol” (Gruenenthal GmbH, priority 2016, dated 2021).

For this series the following is noted: more pronounced at higher pH values.

For `CC[C@@H](c1cccc(O)c1)[C@@H](C)CN(C)C` [Tapentadol, (1R,2R)-3-(3-dimethylamino-1-ethyl-2-methyl-propyl)-phenol], the antimicrobial properties result is listed as “exhibits antimicrobial properties”.
